This is an account of results in PMC5373622, “Screening for AMPA receptor auxiliary subunit specific modulators” (PLoS ONE, 2017).

A value given as a limit tells only on which side of the number the result lay.

The target in one assay is T1, GluA2flip(Q) (A2Q cells) (Homo sapiens, UniProt P42262).
T1 construct: FLAG (C); expressed in transfected cells
Put plainly: Calcium flux (Fluo-8) compound CRC assay on A2Q cells. It is filed as cell-based. (A change in cytosolic calcium serves as a functional read-out for many receptors and channels.)

Assay [1] addresses GluA2flip(R)-CNIH3 (A2R-C3 TetON HEK293 cells) (Homo sapiens, UniProt P42262, Q607R). Put plainly: VSD assay (counter-screen, CRC) on A2R-C3 cells. To be noted: for concentration at which PAM/NAM activity is evident in raw VSD traces, A2R-C3: raw VSD data. Background: Counterscreens check selectivity or assay interference.
Description: Cell lines used in the VSD assays were TetON HEK293 cells. This was the parental cell line for all stable cell lines created. We used GluA2flip(R) TetON HEK cell clone #4 that doxycycline (DOX) dependently expresses GluA2flip(R) (A2R). The A2R cells were used as the base cell line to derive cell lines that co-express auxiliary subunits.
(§3) Greiner 384-pp round-bottom plates containing glutamate for the second add were dispensed by hand using a multi-channel pipet at 5X final concentration. A2R-stg cells were plated in 384-well BD PureCoat amine-coated plates (Corning Life Sciences) at 16k cells/well in DMEM medium supplemented with 10% heat-inactivated FBS and 100U/mL PenStrep antibiotic. […] Cells were incubated overnight (O/N) and washed 4 times in HBSS containing 20 mM HEPES, pH 7.4, on an ELX405CW liquid aspirator and dispenser (BioTek). Buffer was left in the wells and an equal amount of 2X FLIPR dye solution was added and incubated on the cells at room temperature for 45 min. Fluorescence signal was collected at 1 Hz using Ex. 480±20 nm/Em. 540±40 nm on a Hamamatsu Functional Drug Screening System 6000 (FDSS). Baseline signal was collected for 10 seconds followed by addition of 10 μl of 5X compound for a final concentration of 10 μM.
This assay was carried out in the same way as the VSD screening assay except a 10-point concentration curve, from 40 μM to 10 nM, was plated in triplicate for each compound on a single 384-well plate. Data were summarized by plotting them as %max GLUslope against log [compound] that was fit to a four-parameter logistical model. %max GLUslope is defined as a normalized GLUslope expressed as a percentage of the mean maximum GLUslope, defined as 100, where background mean vehicle control (VHLslope) were subtracted from both values on a per plate basis. Thus, %max GLU slope = (GLUslope-mean VHLslope/mean maxGLUslope-mean VHLslope).
For assay [2], the target named is T2, GluA2flip(Q)-CNIH3 (A2Q-C3 cells) (Homo sapiens, UniProt P42262). Put plainly: Calcium flux (Fluo-8) compound CRC assay on A2Q-C3 cells.
T2 sequence (P42262 25-883 isoform P42262-2 limits assumed): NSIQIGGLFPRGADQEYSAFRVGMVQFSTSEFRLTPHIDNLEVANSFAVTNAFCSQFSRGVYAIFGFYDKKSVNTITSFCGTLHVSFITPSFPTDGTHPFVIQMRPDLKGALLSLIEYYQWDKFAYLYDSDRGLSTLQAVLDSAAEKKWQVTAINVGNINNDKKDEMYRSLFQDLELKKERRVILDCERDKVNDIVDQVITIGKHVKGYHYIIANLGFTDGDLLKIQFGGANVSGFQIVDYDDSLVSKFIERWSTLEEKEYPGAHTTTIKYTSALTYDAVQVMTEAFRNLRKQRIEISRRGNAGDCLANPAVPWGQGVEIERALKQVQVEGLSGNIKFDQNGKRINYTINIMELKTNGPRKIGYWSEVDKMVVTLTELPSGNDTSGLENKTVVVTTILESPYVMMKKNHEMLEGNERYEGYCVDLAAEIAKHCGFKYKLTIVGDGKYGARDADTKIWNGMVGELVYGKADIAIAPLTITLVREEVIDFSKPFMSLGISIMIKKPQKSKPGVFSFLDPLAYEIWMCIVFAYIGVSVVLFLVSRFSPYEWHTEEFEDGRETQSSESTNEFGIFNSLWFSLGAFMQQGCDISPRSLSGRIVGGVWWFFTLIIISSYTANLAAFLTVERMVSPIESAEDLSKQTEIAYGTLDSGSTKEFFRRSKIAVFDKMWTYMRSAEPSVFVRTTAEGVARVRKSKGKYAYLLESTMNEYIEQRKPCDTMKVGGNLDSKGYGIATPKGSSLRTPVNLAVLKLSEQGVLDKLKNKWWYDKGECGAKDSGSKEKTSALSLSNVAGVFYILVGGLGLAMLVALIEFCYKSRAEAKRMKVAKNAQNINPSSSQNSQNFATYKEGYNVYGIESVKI
T2 sequence (Q8TBE1 whole entry partner): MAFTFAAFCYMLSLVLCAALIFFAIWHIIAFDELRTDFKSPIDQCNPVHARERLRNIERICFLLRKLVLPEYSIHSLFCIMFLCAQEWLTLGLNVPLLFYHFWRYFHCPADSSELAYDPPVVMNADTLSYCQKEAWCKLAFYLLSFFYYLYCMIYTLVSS
Description: (§4) Cell lines used in the calcium flux assay were GluA2flip(Q)-FLAG + GSG1L-1D4 pTREt-Va dual expression in TetON HEK cell clone #20 (A2Q-GSG), GluA2flip(Q)-FLAG + CNIH3-1D4 pTREt-Va dual expression in TetON HEK cell clone #8 (A2Q-C3), GluA2flip(Q)-FLAG pTREt-Va in TetON HEK cell clone #5 (A2Q), and tethered GluA2flip(Q)-FLAG-stargazin [28] in pTREt-Va dual expression in TetON HEK cell clone #13 (A2Q-stg) (Summarized in Table 1).
(§5) Compounds that were selected as hits using the VSD assay were subsequently screened against the calcium permeable A2Q-stg and A2Q-C3 cell lines in a glutamate potency fold-shift assay using the calcium sensing dye Fluo-8 (AAT Bioquest cat #21080). This assay is used to measure how pretreatment with compounds shifts the EC50 of glutamate on A2Q-stg and A2Q-C3 cells. 30 μM of each compound was pre-incubated with the cells for 120 secs and then an 11-point glutamate CRC from 4 mM to 10 pM was applied to the cells for 180 sec. […] Greiner 384-pp round-bottom plates containing glutamate solutions were dispensed by hand using a multi-channel pipet at 5X final concentration. […] Sodium butyrate and DOX were added to the cells at 1 mM and 5 μg/mL, respectively, 24 hours before screening. A2Q-stg cells were induced with 10 μg/mL DOX. Cells were incubated O/N and washed 4 times in low calcium buffer on an ELX405CW liquid aspirator and dispenser (BioTek). Buffer was left in the wells and an equal amount of 4.6 μM (2X) Fluo-8 (AAT Bioquest cat #21080) solution with 2.5 mM probenecid was added and incubated on the cells at room temperature for 40 minutes. Probenecid was added to block dye efflux from the cells [29]. Dye was washed off with low calcium buffer using the ELX405CW (BioTek) and plates were immediately inserted into the FDSS (Hamamatsu). Fluorescence signal was collected at 1 Hz using Ex. 480±20 nm/Em. 540±40 nm. Baseline signal was collected for 10 seconds followed by addition of 20 μl of 2X compound for a final concentration of 30 μM. After 290 seconds, 10 μl of a 5X glutamate solution in high calcium buffer (10 mM HEPES, pH 7.4, 140 mM NaCl, 5 mM KCl, 1 mM MgCl2, 9 mM CaCl2, and 10 mM glucose) was added for 180 seconds.
(§6) These compound CRCs were applied to the cells 2 minutes before a 1mM glutamate stimulation. […] Normalized FDSS traces were curve fit to CRCs using the initial GLUslope (GLUslope1) in a 3–6 sec window after glutamate application. CRCs were also plotted for the traces’ area under the curve (AUC) in the GLUmaxmin window. […] Compounds were plotted as %max GLUslope against log [compound] and fit to a four-parameter logistical model as in the VSD.
(§7) Cells were loaded with Fluo-8 and excess dye was washed out. After 120 secs of pre-incubation with compound at concentrations ranging from 30 μM to 30 nM (Fig 4Bi), 1 mM glutamate was added (Fig 4Bii). In the calcium assay, 250 μM was used as the maxGLU dose because the GLUslope1 values decreased at higher concentrations of glutamate, making it the dose with the maximal GLUslope1 response. […] We measured GLUslope in three consecutive time windows, referred to as GLUslope1-3, because three phases were clearly detectable (Fig 4C). The final CRC curves were calculated from GLUslope1, obtained from the first 3–6 sec window.
(§8) The final compound CRC curves were calculated from GLUslope1. […] The AUC measures the accumulation of calcium instead of gating and sometimes produced a CRC fit when GLUslope1 could not derive an EC50 value.
Assay [3] addresses T3, tethered GluA2flip(Q)-stargazin (A2Q-stg cells) (Rattus norvegicus, UniProt P19491). Description: Calcium flux (Fluo-8) glutamate potency fold-shift assay on A2Q-stg cells. In kind it is cell-based. The following applies: 30 μM compound. Here is the method:
(§1) In this assay, a maximal dose (30 μM) of each compound (Fig 4Di) was incubated on cells for 120 secs and then a CRC for glutamate ranging from 4 mM to 10 pM was collected (Fig 4Dii). A rightward shift of the CRC for glutamate to a higher EC50 indicates NAM activity and a leftward shift to a lower EC50 indicates PAM activity (Fig 4E). […] These compounds, considered active, were then evaluated as a CRC of the compounds in the calcium flux assay.

Assay [4] addresses T2, GluA2flip(Q)-CNIH3 (A2Q-C3 cells). Put plainly: Calcium flux (Fluo-8) glutamate potency fold-shift assay on A2Q-C3 cells. In kind it is cell-based. Also noted: FLAG (C); expressed in transfected cells. To be noted: 30 μM compound. Here is the method:
as §1

Assay [5] has as its target T3, tethered GluA2flip(Q)-stargazin (A2Q-stg cells). Put plainly: Calcium flux (Fluo-8) compound CRC assay on A2Q-stg cells.
Description: as §4, §5
These compound CRCs were applied to the cells 2 minutes before a 1mM glutamate stimulation. […] Normalized FDSS traces were curve fit to CRCs using the initial GLUslope (GLUslope1) in a 3–6 sec window after glutamate application. […]
Cells were loaded with Fluo-8 and excess dye was washed out. […] We measured GLUslope in three consecutive time windows, referred to as GLUslope1-3, because three phases were clearly detectable (Fig 4C). The final CRC curves were calculated from GLUslope1, obtained from the first 3–6 sec window.
The final compound CRC curves were calculated from GLUslope1. […]
Assay [6] deals with GluA2flip(R)-stargazin (A2R-stg TetON HEK293 cells) (Homo sapiens, UniProt P42262, Q607R). Put plainly: Voltage-sensitive dye (VSD) assay (primary screen, counter-screen, CRC) on A2R-stg cells. The following applies: for concentration at which PAM/NAM activity is evident in raw VSD traces, A2R-stg: raw VSD data.
GluA2flip(R)-stargazin (A2R-stg TetON HEK293 cells), sequence (P42262 25-883 isoform P42262-2 Q607R limits assumed): as the sequence (P42262 25-883 isoform P42262-2 limits assumed) above, with Q583R counted along it
GluA2flip(R)-stargazin (A2R-stg TetON HEK293 cells), sequence (Q9Y698 whole entry partner): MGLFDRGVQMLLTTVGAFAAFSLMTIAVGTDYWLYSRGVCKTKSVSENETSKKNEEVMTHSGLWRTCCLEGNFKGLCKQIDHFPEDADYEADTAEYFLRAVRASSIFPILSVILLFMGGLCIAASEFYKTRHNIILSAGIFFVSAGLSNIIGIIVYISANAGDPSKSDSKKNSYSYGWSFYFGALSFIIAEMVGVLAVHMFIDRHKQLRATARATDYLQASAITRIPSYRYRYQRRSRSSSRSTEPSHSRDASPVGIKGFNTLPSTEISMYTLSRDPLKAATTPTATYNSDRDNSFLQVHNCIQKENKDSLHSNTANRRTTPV
Description: Cell lines used in the VSD assays were TetON HEK293 cells. […] We used GluA2flip(R) TetON HEK cell clone #4 that doxycycline (DOX) dependently expresses GluA2flip(R) (A2R). The A2R cells were used as the base cell line to derive cell lines that co-express auxiliary subunits.
as §3
Hits were selected from this initial screen using 4 different criteria, which we termed CMPDslope, CMPDmaxmin, GLUslope, and GLUmaxmin. […] GLUslope is the fitted slope of the increase in fluorescence within 10 sec after adding glutamate. GLUmaxmin is the difference in the minimum and maximum value in fluorescence signal reached in the 100 sec window after adding glutamate. Compounds were classified as hits if they differed by 3 standard deviations of the mean for each criterion. Tier 1 hits were classified as those that hit in the GLUslope, GLUmaxmin, and CMPDmaxmin windows. Tier 2 hits were classified as compounds that hit in the GLUslope window and either the GLUmaxmin or CMPDmaxmin window. Tier 3 hits were classified as those that hit in only the GLUslope or the GLUmaxmin window. Tier 4 hits were classified as compounds that hit only in the CMPD window, CMPDslope or CMPDmaxmin. Hit selection was further narrowed using the criterion that their signal must return to near baseline values before entering the glutamate add window.
VSD concentration response curves (CRCs): After the above counter-screens, compounds that remained positive were moved forward to collect complete CRCs for A2R-stg and A2R-C3 cell lines. This assay was carried out in the same way as the VSD screening assay except a 10-point concentration curve, from 40 μM to 10 nM, was plated in triplicate for each compound on a single 384-well plate. Data were summarized by plotting them as %max GLUslope against log [compound] that was fit to a four-parameter logistical model. %max GLUslope is defined as a normalized GLUslope expressed as a percentage of the mean maximum GLUslope, defined as 100, where background mean vehicle control (VHLslope) were subtracted from both values on a per plate basis. Thus, %max GLU slope = (GLUslope-mean VHLslope/mean maxGLUslope-mean VHLslope).
Assay [7] deals with GluA2flip(Q)-GSG1L (A2Q-GSG cells) (Homo sapiens, UniProt P42262). Put plainly: Calcium flux (Fluo-8) compound CRC assay on A2Q-GSG cells.
GluA2flip(Q)-GSG1L (A2Q-GSG cells), sequence (P42262 25-883 isoform P42262-2 limits assumed): as the sequence (P42262 25-883 isoform P42262-2 limits assumed) above
GluA2flip(Q)-GSG1L (A2Q-GSG cells), sequence (Q6UXU4 whole entry partner): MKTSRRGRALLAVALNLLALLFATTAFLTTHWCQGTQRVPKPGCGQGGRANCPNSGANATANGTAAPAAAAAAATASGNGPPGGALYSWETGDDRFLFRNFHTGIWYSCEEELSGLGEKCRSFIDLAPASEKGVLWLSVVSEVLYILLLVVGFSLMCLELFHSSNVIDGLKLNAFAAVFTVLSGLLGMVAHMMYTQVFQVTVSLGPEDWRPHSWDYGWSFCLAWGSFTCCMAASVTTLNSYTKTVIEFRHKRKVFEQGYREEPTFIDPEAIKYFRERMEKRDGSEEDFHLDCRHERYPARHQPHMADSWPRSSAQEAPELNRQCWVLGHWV
Description: as §4, §5, §6, §7, §8
The target in the next assay is T4, GluA2flip(R) (A2R cells) (Homo sapiens, UniProt P42262, Q607R).
T4 construct: expressed in transfected cells
T4 sequence (P42262 25-883 isoform P42262-2 Q607R limits assumed): as the sequence (P42262 25-883 isoform P42262-2 limits assumed) above, with Q583R counted along it
Description: Whole-cell electrophysiology with fast ligand application, A2R cells. It is filed as cell-based. To be noted: 40 μM compound. Here is the method: (§2) A2R-stg cells were plated on HNO3 washed coverslips coated with 1:20000 poly-d-lysine (incubated for 20 min, washed with PBS 2x and media 1x) for 2 hours. They were induced with 5 μg/mL DOX for 24 hours before recording. A2R cells were plated on 1:60000 poly-d-lysine for 2 hours and induced with 7.5 μg/mL DOX for 30 hours before recording. The cells were lifted from the coverslip after whole cell configuration was achieved and brought in front of the theta tubing. […] Recording was done using a single channel of a Multiclamp700B Amplifier (Axon Instruments) operated by pClamp10 software. Signals were digitized using Digidata1440A (Axon Instruments) at a sampling rate of 50 kHz and low pass filtered at 2kHz. Borosilicate glass capillaries (O.D. 1.5 mm, I.D. 0.86 mm, Sutter) were pulled to manufacture electrodes with pipette resistances of 3.5–5 MΩ.
Standard solution without ligand was the external solution. The ligand solution contained 1mM glutamate in external solution, supplemented with 2mM glucose and 3mM NaCl to facilitate visualizing the interface of the two solutions and recording liquid junction potential after breaking the patch. The 10–90% rise time of liquid junction potential was around 300μsec. VU0627849 was dissolved in external solution containing 1 mM glutamate to a final concentration of 40 μM. […]

Assay [8] concerns the target T5, GluA2flip(R) (A2R TetON HEK293 cells) (Homo sapiens, UniProt P42262, Q607R).
T5 construct: expressed in transfected cells
Put plainly: VSD counter-screen on A2R cells. The following applies: 10 μM compound. In kind it is cell-based.

The target in assay [9] is T6, GluA2flip(R)-stargazin (A2R-stg cells) (Homo sapiens, UniProt P42262, Q607R).
T6 construct: expressed in transfected cells
T6 sequence (P42262 25-883 isoform P42262-2 Q607R limits assumed): as the sequence (P42262 25-883 isoform P42262-2 limits assumed) above, with Q583R counted along it
T6 sequence (Q9Y698 whole entry partner): as the sequence (Q9Y698 whole entry partner) above
Put plainly: Whole-cell electrophysiology with fast ligand application, A2R-stg cells. It is filed as cell-based. To be noted: 40 μM compound. As for the experimental part: as §2
Standard solution without ligand was the external solution. The ligand solution contained 1mM glutamate in external solution, supplemented with 2mM glucose and 3mM NaCl to facilitate visualizing the interface of the two solutions and recording liquid junction potential after breaking the patch. The 10–90% rise time of liquid junction potential was around 300μsec. VU0627849 was dissolved in external solution containing 1 mM glutamate to a final concentration of 40 μM. Tips of the tubing for each solution were positioned immediately before the opening of one compartment of the theta tubing. Drug-containing and drug-free glutamate solutions were switched using a manual valve located between the solution reservoir and theta glass tube. Solution speed was adjusted by the height of the reservoir using gravity.
We have conducted a preliminary electrophysiological investigation of the compound VU0627849. Using a fast ligand application system, A2R and A2R-stg cells were stimulated with 1mM glutamate using a 100 ms pulse followed by a 50 ms interval and a second 20 ms pulse to evaluate recovery from desensitization (Fig 10A and 10B red traces). […] These effects are drug specific because wash out of VU0627849 restored the original current (Fig 10B, black trace). We also see a small effect on A2R cells that was not seen in the VSD assay (Fig 10A blue trace). VU0627849 acted as a PAM on A2R-stg cells, corroborating our HTS data from the VSD assay.

GluA2flip(R)-CNIH3 (A2R-C3 TetON HEK293 cells), sequence (P42262 25-883 isoform P42262-2 Q607R limits assumed): as the sequence (P42262 25-883 isoform P42262-2 limits assumed) above, with Q583R counted along it
GluA2flip(R)-CNIH3 (A2R-C3 TetON HEK293 cells), sequence (Q8TBE1 whole entry partner): as the sequence (Q8TBE1 whole entry partner) above
T1 sequence (P42262 25-883 isoform P42262-2 limits assumed): as the sequence (P42262 25-883 isoform P42262-2 limits assumed) above
T3 sequence (P19491 22-883): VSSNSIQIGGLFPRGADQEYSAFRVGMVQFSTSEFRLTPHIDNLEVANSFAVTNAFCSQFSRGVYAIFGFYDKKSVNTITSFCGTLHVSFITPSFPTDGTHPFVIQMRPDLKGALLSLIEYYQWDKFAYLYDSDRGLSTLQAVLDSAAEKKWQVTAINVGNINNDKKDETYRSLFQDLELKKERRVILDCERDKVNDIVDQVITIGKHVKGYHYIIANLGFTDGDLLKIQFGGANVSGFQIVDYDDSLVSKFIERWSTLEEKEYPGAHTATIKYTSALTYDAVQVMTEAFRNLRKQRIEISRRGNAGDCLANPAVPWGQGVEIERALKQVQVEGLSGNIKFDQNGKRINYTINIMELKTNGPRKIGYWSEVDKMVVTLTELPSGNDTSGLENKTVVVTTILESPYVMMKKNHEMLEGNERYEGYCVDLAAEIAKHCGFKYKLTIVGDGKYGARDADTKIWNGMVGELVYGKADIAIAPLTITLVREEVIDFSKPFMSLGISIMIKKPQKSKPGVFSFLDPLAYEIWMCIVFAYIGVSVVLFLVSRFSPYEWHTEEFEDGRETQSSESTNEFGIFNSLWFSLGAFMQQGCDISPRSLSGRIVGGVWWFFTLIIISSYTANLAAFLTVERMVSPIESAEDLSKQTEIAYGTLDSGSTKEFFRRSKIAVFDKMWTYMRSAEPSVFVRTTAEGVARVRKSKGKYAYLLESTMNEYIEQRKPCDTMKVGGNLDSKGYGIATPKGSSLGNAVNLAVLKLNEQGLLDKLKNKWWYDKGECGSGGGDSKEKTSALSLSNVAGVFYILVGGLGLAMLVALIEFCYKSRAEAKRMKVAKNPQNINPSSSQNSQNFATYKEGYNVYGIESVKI
T3 sequence (Q71RJ2 whole entry partner): as the sequence (Q9Y698 whole entry partner) above, with I257V, E306D, N307S, S313A counted along it
T5 sequence (P42262 25-883 isoform P42262-2 Q607R limits assumed): as the sequence (P42262 25-883 isoform P42262-2 limits assumed) above, with Q583R counted along it

A word on the IC50: it is the concentration that gives 50% inhibition. Low values mean higher potency, high ones lower potency. Broadly, the EC50 is the midpoint of the concentration-response curve. Take `COc1ccccc1CC(=O)NC1(c2nc(-c3ccsc3)no2)CCCCC1` [VU0539491]: on GluA2flip(Q) (A2Q cells), the “PAM/NAM activity in calcium flux CRC assay, A2Q” value is given as “Slight NAM activity”. In addition, in assay [1], inhibition was half-maximal at 3.2 µM (IC50) and the “PAM/NAM activity in VSD assay, A2R-C3” value was “NAM”. Further, the “PAM/NAM activity in calcium flux CRC assay, A2Q-C3” value in assay [2] is on record as “slight decrease in signal”. The “PAM/NAM categorisation in glutamate potency fold-shift assay, A2Q-stg” value in [3] was “NAM”. Further, the “PAM/NAM categorisation in glutamate potency fold-shift assay, A2Q-C3” value in assay [4] is “NAM”. Also, in assay [5], the “PAM/NAM activity in calcium flux CRC assay, A2Q-stg” value is reported as “Slight NAM activity”. For the same compound, in [6], the EC50 was 4.2 µM and the “PAM/NAM activity in VSD assay, A2R-stg” value was “PAM”. Also, the “PAM/NAM activity in calcium flux CRC assay, A2Q-GSG” value in [7] is “PAM”.
With `CCCc1c(C(=O)NC2CCCCC2)nnn1-c1ccccc1` [VU0612951], in assay [1], it took 0.87 µM to reach half-maximal inhibition (IC50); the “PAM/NAM activity in VSD assay, A2R-C3” value is reported as “NAM”; the “concentration at which PAM/NAM activity is evident in raw VSD traces, A2R-C3” value is “higher than 1 μM”. Moreover, the “decrease in %max GLUslope across the CRC, A2R-C3” value in [1] (VSD CRC 40 μM to 10 nM) is given as ~ 40%. For the same compound, the “PAM/NAM categorisation in glutamate potency fold-shift assay, A2Q-stg” value in assay [3] was “right-shifts”. For the same compound, the “PAM/NAM categorisation in glutamate potency fold-shift assay, A2Q-C3” value in assay [4] was “right-shifts”. Moreover, in [5], the “PAM/NAM activity in calcium flux CRC assay, A2Q-stg” value is reported as “negative trend”. Also, in assay [6], the midpoint of inhibition, the IC50, lay at 1.5 µM; the “PAM/NAM activity in VSD assay, A2R-stg” value is “NAM”; the “concentration at which PAM/NAM activity is evident in raw VSD traces, A2R-stg” value was “submicromolar”. In addition, the “decrease in %max GLUslope across the CRC, A2R-stg” value in assay [6] (VSD CRC 40 μM to 10 nM) is listed as ~ 40%.
For `O=C(Cc1cc(-c2ccc3c(c2)OCCO3)on1)NCc1ccccc1` [VU0627849], at GluA2flip(R) (A2R cells), the “effect on A2R cells in electrophysiology” value is recorded as “small effect”. Also, the “PAM/NAM activity in calcium flux CRC assay, A2Q” value on GluA2flip(Q) (A2Q cells) is “PAM”. On GluA2flip(Q) (A2Q cells) (CRC from GLUslope1, 1 mM glutamate, PAM, read-out: EC50 Ca2+ Sensing, A2Q), the EC50 was found to be 14.1 µM. For the same compound, the “positive change in %max GLUslope, A2Q” value on GluA2flip(Q) (A2Q cells) (across calcium flux CRC) is greater than 80%. In addition, in [1], the EC50 worked out at 0.85 µM; the “PAM/NAM activity in VSD assay, A2R-C3” value is “PAM”; the “concentration at which PAM/NAM activity is evident in raw VSD traces, A2R-C3” value is no less than 2.5 µM. In addition, the “Activity on A2R cells in counter-screens” value in [8] is “did not show any activity”. Further, in assay [2], the concentration giving a half-maximal response (EC50) is 3.1 µM and the “PAM/NAM activity in calcium flux CRC assay, A2Q-C3” value is “PAM”. The “positive change in %max GLUslope, A2Q-C3” value in assay [2] (across calcium flux CRC) is greater than 80%. For the same compound, the “PAM/NAM activity in electrophysiology, A2R-stg” value in assay [9] is “PAM”. For the same compound, the “change in peak amplitude” value in [9] (1 mM glutamate 100 ms pulse, preliminary) is given as “no change”. Moreover, the “amplitude in the second pulse of glutamate” value in assay [9] (second 20 ms pulse after 50 ms interval, preliminary) is recorded as “increased amplitude”. Moreover, the resensitization result in assay [9] (within 10 ms following initial activation and desensitization, preliminary) is on record as “delayed increase in resensitization”. Moreover, in assay [5], the “PAM/NAM activity in calcium flux CRC assay, A2Q-stg” value is “PAM”. For the same compound, the “increase in response of A2Q-stg cells” value in assay [5] (7.5 and 30 μM compound) is ~ 300 arbitrary fluorescence units (AFU). For the same compound, in assay [6], a half-maximal effect (EC50) was put at 0.86 µM; the “PAM/NAM activity in VSD assay, A2R-stg” value is “PAM”; the “concentration at which PAM/NAM activity is evident in raw VSD traces, A2R-stg” value was no less than 2.5 µM. For the same compound, in assay [7], the EC50 was 24.9 µM and the “PAM/NAM activity in calcium flux CRC assay, A2Q-GSG” value was “PAM”. In assay [7] (across calcium flux CRC), the “positive change in %max GLUslope, A2Q-GSG” value is greater than 80%.
